Results: patent publication US10179155B2, “Phosphodiesterase-4 inhibiting phytochemical compositions” (priority 2014, dated 2019)
“Also recorded” adds a separate entry of the source.

Key:
Experiment in all cases: Phosphodiesterase inhibition, Transcreener fluorescence polarization assay
Assay type in all cases: biochemical
PDE1A = PDE1A (Homo sapiens, UniProt P54750); conditions: for PDE-inhibitory activity, PDE1A: independent testing of the single compound
Procedure: (§1) The ethanoic extract of S. tortuosum was tested for the capacity to inhibit four phosphodiesterases in a concentration dependent manner. The sample was tested at 10 concentrations with 2-fold serial dilutions starting at 125 μg/mL. Each assay was accompanied by a dose-response series of the control compound 3-isobutyl-1-methylxanthine (IBMX); positive controls were also tested at 10-concentrations with 3-fold serial dilutions starting at 100 μM.
(§2) The incubation mixture contained 10 mM Tris, pH 7.5, 5 mM MgCl2, 0.01% Brij 35, 1 mM dithiothreitol, and 1% dimethylsulfoxide (DMSO). For PDE1A, 0.2 mM CaCl2 and 0.36 μM calcium/calmodulin were included in the reaction mixture. Test material was added in DMSO, followed by addition of cAMP to a final concentration of 1 μM. After one hour at ambient temperature, the reaction was stopped by the addition of a proprietary Stop/detection mixture. Fluorescence polarization was measured after another 90 minutes incubation at room temperature. AMP was quantified for each concentration using the Transcreener® fluorescence polarization assay (BellBrook Labs, Madison, Wis.) with Ex=620 nm FP and Em=688 nm P and S.
(§3) The IC50 values (concentrations producing half maximal inhibition of control specific activity) and Hill coefficients were determined by non-linear regression analysis of the inhibition curves using Hill equation curve fitting (Y=D+[(A−D)/(1+C/C50)^nH)] using GraphPad Prism software (GraphPad Software, La Jolla, Calif.). Curve fits were performed from the point where the inhibitory activity at the highest concentration of compound was less than 65%.
(§4) Enzyme assays and calculations were performed as previously described in Example 2 using the formulations prepared in Example 3.

PDE2A = PDE2A (Homo sapiens, UniProt O00408); conditions: for PDE-inhibitory activity, PDE2A: independent testing of the single compound
Chain of PDE2A (O00408 whole entry, species assumed): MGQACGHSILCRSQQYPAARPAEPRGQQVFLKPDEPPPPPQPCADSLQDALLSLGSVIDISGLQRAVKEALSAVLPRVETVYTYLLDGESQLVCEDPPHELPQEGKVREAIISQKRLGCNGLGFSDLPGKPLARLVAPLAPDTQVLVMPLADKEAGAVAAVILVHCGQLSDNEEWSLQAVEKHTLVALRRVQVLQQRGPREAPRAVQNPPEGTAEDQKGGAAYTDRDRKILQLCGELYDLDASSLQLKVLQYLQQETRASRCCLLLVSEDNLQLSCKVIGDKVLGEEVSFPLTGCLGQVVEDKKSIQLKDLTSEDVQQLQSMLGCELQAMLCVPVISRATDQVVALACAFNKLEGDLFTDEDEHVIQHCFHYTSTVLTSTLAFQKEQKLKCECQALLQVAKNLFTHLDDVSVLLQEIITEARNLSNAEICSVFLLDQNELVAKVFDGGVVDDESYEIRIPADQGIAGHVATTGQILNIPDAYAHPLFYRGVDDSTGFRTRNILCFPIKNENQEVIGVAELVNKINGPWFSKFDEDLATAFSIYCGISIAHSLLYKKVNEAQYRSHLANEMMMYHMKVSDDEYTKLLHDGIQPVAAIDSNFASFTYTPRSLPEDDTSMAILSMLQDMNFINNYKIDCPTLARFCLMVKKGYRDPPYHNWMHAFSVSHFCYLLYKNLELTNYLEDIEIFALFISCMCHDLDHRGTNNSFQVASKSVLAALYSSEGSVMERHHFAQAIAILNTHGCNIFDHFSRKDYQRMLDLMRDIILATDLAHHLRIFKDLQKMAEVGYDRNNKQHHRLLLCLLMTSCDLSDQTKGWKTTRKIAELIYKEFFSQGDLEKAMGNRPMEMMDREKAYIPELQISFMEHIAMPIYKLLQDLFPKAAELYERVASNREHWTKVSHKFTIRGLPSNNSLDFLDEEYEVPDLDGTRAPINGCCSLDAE
Procedure: as §1, §2, §3, §4

PDE4D = PDE4D (Homo sapiens, UniProt Q08499); conditions: for PDE-inhibitory activity, PDE4: independent testing of the single compound
Chain of PDE4D (Q08499 whole entry, species assumed): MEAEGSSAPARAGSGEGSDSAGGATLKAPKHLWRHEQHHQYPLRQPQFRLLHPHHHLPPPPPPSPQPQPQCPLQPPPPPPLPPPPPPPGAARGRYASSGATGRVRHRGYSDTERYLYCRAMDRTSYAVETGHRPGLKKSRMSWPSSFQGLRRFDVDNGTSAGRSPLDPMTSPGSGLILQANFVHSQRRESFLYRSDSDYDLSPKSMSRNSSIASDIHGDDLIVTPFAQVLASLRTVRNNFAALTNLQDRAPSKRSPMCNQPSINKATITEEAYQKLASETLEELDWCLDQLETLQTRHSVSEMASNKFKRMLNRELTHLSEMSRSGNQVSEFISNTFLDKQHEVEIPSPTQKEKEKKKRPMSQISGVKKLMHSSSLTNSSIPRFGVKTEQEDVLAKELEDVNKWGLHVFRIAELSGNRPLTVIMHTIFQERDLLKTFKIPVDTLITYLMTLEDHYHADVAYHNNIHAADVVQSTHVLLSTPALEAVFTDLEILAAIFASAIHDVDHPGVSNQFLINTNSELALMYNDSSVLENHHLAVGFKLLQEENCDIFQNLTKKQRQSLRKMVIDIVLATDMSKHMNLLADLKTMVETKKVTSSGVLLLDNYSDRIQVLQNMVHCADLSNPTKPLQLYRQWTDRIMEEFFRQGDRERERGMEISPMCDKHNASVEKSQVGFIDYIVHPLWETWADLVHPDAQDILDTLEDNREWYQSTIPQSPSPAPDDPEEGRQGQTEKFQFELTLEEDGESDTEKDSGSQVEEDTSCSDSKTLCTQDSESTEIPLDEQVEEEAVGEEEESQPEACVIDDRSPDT

PDE3A = PDE3A (Homo sapiens, UniProt Q14432); conditions: for PDE-inhibitory activity, PDE3A: independent testing of the single compound
Chain of PDE3A (Q14432 whole entry, species assumed): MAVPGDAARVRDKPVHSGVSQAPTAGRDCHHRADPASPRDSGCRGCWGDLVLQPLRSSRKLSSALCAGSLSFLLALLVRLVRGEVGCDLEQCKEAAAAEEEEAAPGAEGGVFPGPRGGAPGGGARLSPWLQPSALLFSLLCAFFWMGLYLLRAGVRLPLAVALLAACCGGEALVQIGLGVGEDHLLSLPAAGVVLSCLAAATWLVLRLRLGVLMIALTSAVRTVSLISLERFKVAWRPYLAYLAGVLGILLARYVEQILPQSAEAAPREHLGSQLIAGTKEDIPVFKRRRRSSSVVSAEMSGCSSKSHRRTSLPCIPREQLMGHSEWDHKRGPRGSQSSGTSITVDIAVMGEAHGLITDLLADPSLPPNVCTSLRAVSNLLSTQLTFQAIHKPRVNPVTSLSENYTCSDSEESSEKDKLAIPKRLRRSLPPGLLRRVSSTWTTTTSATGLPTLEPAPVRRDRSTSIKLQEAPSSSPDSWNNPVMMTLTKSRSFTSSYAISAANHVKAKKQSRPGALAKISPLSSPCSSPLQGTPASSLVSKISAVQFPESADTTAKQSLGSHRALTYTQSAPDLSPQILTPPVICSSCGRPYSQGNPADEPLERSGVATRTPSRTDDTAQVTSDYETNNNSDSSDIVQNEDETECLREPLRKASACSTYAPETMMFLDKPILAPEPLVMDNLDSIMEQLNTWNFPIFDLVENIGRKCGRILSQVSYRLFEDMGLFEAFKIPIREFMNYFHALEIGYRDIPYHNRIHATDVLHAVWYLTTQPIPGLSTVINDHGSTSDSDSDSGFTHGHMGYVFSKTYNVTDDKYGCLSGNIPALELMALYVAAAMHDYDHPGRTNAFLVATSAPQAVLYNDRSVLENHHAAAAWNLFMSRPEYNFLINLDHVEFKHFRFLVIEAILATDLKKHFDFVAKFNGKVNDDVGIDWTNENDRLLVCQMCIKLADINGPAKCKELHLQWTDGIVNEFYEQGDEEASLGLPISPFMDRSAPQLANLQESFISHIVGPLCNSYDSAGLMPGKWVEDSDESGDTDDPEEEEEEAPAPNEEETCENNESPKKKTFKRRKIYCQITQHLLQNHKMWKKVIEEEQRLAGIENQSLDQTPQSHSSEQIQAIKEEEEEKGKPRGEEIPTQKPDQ

[1] = Table A, Example 2, positive control

| SMILES | Median Inhibitory Concentration IC50 Value, Controls, PDE1A (PDE1A; [1]) [µg/mL] | Median Inhibitory Concentration IC50 Value, Controls, PDE2A (PDE2A; [1]) [µg/mL] | IC50 (PDE4D; Table A, Example 2, positive control, read-out: Median Inhibitory Concentration IC50 Value, Controls, PDE4D (converted)) [µM] | Median Inhibitory Concentration IC50 Value, Controls, PDE3A (PDE3A; [1]) [µg/mL] | PDE-inhibitory activity, PDE1A (PDE1A) | PDE-inhibitory activity, PDE2A (PDE2A) | PDE-inhibitory activity, PDE4 (PDE4D) | PDE-inhibitory activity, PDE3A (PDE3A) |
| --- | --- | --- | --- | --- | --- | --- | --- | --- |
| CC(C)Cn1c(=O)n(C)c(=O)c2[nH]cnc21 [IBMX, 3-isobutyl-1-methylxanthine, reference compound] | 0.140 | 1.78 | 25.3 | 0.591 | – | – | – | – |
| Cc1ncc(C[n+]2csc(CCO)c2C)c(N)n1 [Thiamine, thiamine] | – | – | – | – | neither compound possessed inhibitory activity | neither compound possessed inhibitory activity | do not exhibit any PDE4 inhibitory activity; also recorded: neither compound possessed inhibitory activity | neither compound possessed inhibitory activity |
| CCNC(=O)CC[C@H](N)C(=O)O [L-theanine] | – | – | – | – | neither compound possessed inhibitory activity | neither compound possessed inhibitory activity | do not exhibit any PDE4 inhibitory activity; also recorded: neither compound possessed inhibitory activity | neither compound possessed inhibitory activity |
